Results reported in patent publication US9278963B2, “Pyrimidine hydroxy amide compounds as histone deacetylase inhibitors” (Acetylon Pharmaceuticals, Inc., priority 2013, dated 2016).

Legend:
[1] = test system: human CD34+ bone marrow cells; assay: Cellular viability of cultured CD34+ bone marrow cells; details: 1 μM, treatment for 4 days
[2] = test system: BE(2)-C neuroblastoma cells; assay: Neuroblastoma maturation gene expression, BE(2)-C; format: cell-based
Description: The following is a quick summary of the HDAC neuroblastoma maturation experiments. Adherent cells were plated into 12- or 24-well plates at 10^6 cells/well and allowed to adhere for 2-4 hours. Compounds were dispensed in DMSO at the indicated concentrations using an automated liquid handling system (Tecan D300) and incubated for the indicated times at 37° C. with 5% CO2. Cells were harvested and RNA extracted using the Qiagen RNeasy Mini Kit according to manufacture protocols. The RNA was quantified and relative expression levels were assessed using the Applied Biosystems TaqMan RNA-to-Ct Kit according to manufacture protocols using the indicated TaqMan probes.
The protocol for the maturation experiments was as follows. The day before the experiment, the cells were fed in the flask by doubling the media. The cells were then harvested by adding non-enzymatic cell dissociation media and incubating at 37° C. for 15 minutes. The cells were transferred to a 50 ml tube and pipet to create a single-cell suspension. The cells were washed with PBS buffer. The cells were then resuspended in complete media at 5×10^5 cells per ml. Next, 2 ml of cells were transferred to 24- or 12-well plates. The treatment compounds were then dispensed into each well using the D300 liquid handler. The cells were then incubated for the indicated time at 37° C. The cells were harvested by scraping the cells and transferring to a 2 ml tube. The cells were spun to form a pellet. Next, RNA was extracted using the Qiagen RNeasy Mini kit according to manufacture protocols. The RNA concentration was recorded. The relative RNA levels were assessed using the Applied Biosystems TaqMan RNA-to-Ct kit according to manufacture protocols using the indicated Taqman probes.

[3] = test system: human erythroid, myeloid and megakaryocyte hematopoietic progenitors; assay: Hematopoietic progenitor proliferation (colony) assay; format: cell-based; details: compared with MS-275; 14-16 days in culture
Description: This study evaluated the potential effect of test compounds on human erythroid, myeloid and megakaryocyte hematopoietic progenitor proliferation in media formulations containing various cytokines. Normal human bone marrow light density cells derived from a normal bone marrow donor (Lonza, Md.) were used for these studies. Clonogenic progenitors of human erythroid (CFU-E, BFU-E) and granulocyte-monocyte (CFU-GM) lineages were assessed in a semi-solid methylcellulose-based media formulation containing rhIL-3 (10 ng/mL), rhGM-SCF (10 ng/mL), rhSCF (50 ng/mL) and Epo (3 U/mL). Clonogenic progenitors of human megakaryocyte lineage were assessed in a semi-solid collagen based matrix containing rhIL-3 (10 ng/mL), rhIL-6 (10 ng/mL) and rhTpo (50 ng/mL).
Compounds were added to the medium to give the final desired concentrations. […] Following 14-16 days in culture, myeloid and erythroid colonies were assessed microscopically and scored by trained personnel. […] The colonies were assessed and scored by trained personnel and divided into the following categories based on size; CFU-Mk (3-20), CFU-Mk (21-49) and CFU-Mk (≧50).
The mean±1 standard deviation of three replicate cultures was calculated for progenitors in both media formulations. […] A sigmoidal curve was then fit to the graph and from this curve the inhibitory concentration (μM) was then calculated using the Boltzman equation […]

HDAC3 = HDAC3 (Homo sapiens (Human), UniProt O15379); assay: HDAC enzyme assay, HDAC3; format: biochemical
Sequence of HDAC3 (O15379 whole entry): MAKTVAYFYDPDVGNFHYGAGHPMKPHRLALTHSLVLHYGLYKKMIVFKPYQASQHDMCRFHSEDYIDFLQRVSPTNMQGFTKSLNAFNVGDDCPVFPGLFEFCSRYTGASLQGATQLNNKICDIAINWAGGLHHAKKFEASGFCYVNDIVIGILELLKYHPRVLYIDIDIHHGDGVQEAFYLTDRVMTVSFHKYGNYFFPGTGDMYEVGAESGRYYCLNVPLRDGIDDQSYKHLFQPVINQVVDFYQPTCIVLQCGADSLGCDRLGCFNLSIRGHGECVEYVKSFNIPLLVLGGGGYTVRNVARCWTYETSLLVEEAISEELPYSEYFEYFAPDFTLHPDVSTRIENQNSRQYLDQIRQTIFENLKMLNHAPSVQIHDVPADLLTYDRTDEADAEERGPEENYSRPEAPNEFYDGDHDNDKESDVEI
Sequence of HDAC3 (Q9Y618 395-489 partner): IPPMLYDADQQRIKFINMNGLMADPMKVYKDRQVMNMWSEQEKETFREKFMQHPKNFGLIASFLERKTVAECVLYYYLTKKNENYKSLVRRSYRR
Description: Compounds for testing were diluted in DMSO to 50 fold the final concentration and a ten point three fold dilution series was made. The compounds were diluted in assay buffer (50 mM HEPES, pH 7.4, 100 mM KCl, 0.001% Tween-20, 0.05% BSA, 20 μM TCEP) to 6 fold their final concentration. […] The tripeptide substrate and trypsin at 0.05 μM final concentration were diluted in assay buffer at 6 fold their final concentration. The final enzyme concentrations used in these assays were 3.3 ng/ml (HDAC1), 0.2 ng/ml (HDAC2), 0.08 ng/ml (HDAC3) and 2 ng/ml (HDAC6).
Five μl of compounds and 20 μl of enzyme were added to wells of a black, opaque 384 well plate in duplicate. Enzyme and compound were incubated together at room temperature for 10 minutes. Five μ1 of substrate was added to each well, the plate was shaken for 60 seconds and placed into a Victor 2 microtiter plate reader. The development of fluorescence was monitored for 60 min and the linear rate of the reaction was calculated. The IC50 was determined using Graph Pad Prism by a four parameter curve fit.

For `O=C(NO)c1cnc(NC2(c3ccccc3)CCN(C(=O)Nc3ccccc3)CC2)nc1` [Compound 001, N-hydroxy-2-((4-phenyl-1-(phenylcarbamoyl)piperidin-4-yl)amino)pyrimidine-5-carboxamide], the “decrease in cells viability” value [1] was 1.2 fold, the “fold change of genes associated with maturation” value ([2]; 2 days, 3 μM) was “induces gene expression changes that are consistent with maturation” and the “fold change of genes associated with maturation” value ([2]; 48 hours, 0.5, 2 and 4 μM) was “induces gene expression changes consistent with maturation at 4 μM, but not at 2 μM or less”. For the same compound, the “cytotoxicity against erythroid, myeloid and megakaryocytes” value [3] was “significantly less cytotoxicity” and the IC50 (HDAC3) was 1.01 µM.
